Data taken from patent US6407076B1, “Adenosine analogues and related method of treatment” (SmithKline Beecham Corporation, priority 1997, dated 2002).

How the values were obtained:
[1] = biological target: T1, human adenosine A1 receptor (Homo sapiens, UniProt P30542); assay: Reporter gene (CRE/SPAP) agonist assay in CHO cells, adenosine A1 receptor; assay type: cell-based; settings: CHO cells with human A1 receptor; inhibition of forskolin-stimulated SPAP production; potency relative to NECA=1
T1 construct: expressed in transfected cells; host or cells: Chinese hamster ovary (CHO) cells containing CRE/SPAP/HYG reporter elements
T1 sequence (P30542 1-326): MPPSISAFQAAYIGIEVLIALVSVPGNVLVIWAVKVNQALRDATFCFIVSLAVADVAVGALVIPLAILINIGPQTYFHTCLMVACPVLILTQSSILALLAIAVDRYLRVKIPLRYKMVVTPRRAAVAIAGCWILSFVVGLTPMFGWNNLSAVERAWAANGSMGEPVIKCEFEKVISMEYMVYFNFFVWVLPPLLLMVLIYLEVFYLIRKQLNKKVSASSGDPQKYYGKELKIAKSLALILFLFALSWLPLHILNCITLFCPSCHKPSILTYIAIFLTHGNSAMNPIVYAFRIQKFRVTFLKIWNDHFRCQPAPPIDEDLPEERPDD
Procedure: Agonist activity was measured in Chinese hamster ovary (CHO) cells containing the CRE/SPAP/HYG (CRE=cyclic AMP response element; HYG=hygromycin resistance; SPAP=secreted placental alkaline phosphatase) reporter gene elements, which upon stimulation of cAMP levels produced SPAP. A cell line was used, which was stably transfected with either the human adenosine A1 receptor or the human adenosine A3 receptor in addition to the above elements. Cells were plated out in 96-well plates in culture medium and incubated at 37° C. for 1 hour. […] All cells were then incubated for a further 5 hours at 37° C., and cooled to room temperature, after which a substrate for the phosphatase (para-nitrophenol phosphate, pNPP), which is converted by SPAP to a coloured reagent) was then added and the 96-well plates were read in a plate reader. From these readings, the concentration-dependence of the inhibition by the agonist for forskolin-stimulated SPAP production can be calculated.
(ECR=equipotent concentration ratio relative to NECA=1)

[2] = biological target: T2, human adenosine A3 receptor (Homo sapiens, UniProt P0DMS8); assay: Reporter gene (CRE/SPAP) agonist assay in CHO cells, adenosine A3 receptor; settings: CHO cells with human A3 receptor; inhibition of forskolin-stimulated SPAP production; potency relative to NECA=1
T2 sequence (P0DMS8 1-318): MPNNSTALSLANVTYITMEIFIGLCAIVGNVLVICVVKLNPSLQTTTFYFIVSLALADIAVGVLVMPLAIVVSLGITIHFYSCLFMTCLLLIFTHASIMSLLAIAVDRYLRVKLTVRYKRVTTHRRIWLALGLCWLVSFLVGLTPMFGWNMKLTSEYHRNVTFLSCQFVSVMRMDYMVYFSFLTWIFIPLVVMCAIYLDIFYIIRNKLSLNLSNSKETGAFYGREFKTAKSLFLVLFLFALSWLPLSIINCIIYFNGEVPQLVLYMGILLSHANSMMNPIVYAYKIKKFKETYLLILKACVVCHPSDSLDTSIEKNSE

SMILES	A1 ECR (equipotent concentration ratio relative to NECA=1) [1]	A3 ECR (equipotent concentration ratio relative to NECA=1) [2]	melting point
CCOC(=O)N1CCC(Nc2nc(C)nc3c2ncn3[C@@H]2O[C@H](COC(F)(F)F)[C@@H](O)[C@H]2O)CC1 [Example 24, 4-[9-(3R,4S-Dihydroxy-5R-trifluoromethoxymethyl-tetrahydro-furan-2R-yl)-2-methyl-9H-purin-6-ylamino]-piperidine-1-carboxylic Acid Ethyl Ester]	51.70	>134	
O[C@@H]1[C@H](O)[C@@H](COC(F)(F)F)O[C@H]1n1cnc2c(N[C@H]3CCC[C@@H]3O)ncnc21 [Example 19, N-(2S-Hydroxy-cyclopent-(S)-yl)-5′-O-trifluoromethyl-adenosine]		>150	
O[C@@H]1[C@H](O)[C@@H](COC(F)(F)F)O[C@H]1n1cnc2c(NCCc3ccncc3)ncnc21 [Example 2, N-(2-Pyridin-4-yl-ethyl)-5′-O-trifluoromethyladenosine]	185.5		
O[C@@H]1[C@H](O)[C@@H](COCC(F)(F)F)O[C@H]1n1cnc2c(N[C@@H]3CCC[C@H]3O)ncnc21 [Example 8, N-(2R-Hydroxy-cyclopent-(R)-yl)-5′-O-(2,2,2-trifluoro-ethyl)-adenosine]	239.40		
O[C@@H]1[C@H](O)[C@@H](COC(F)(F)F)O[C@H]1n1cnc2c(N[C@H]3CCOC3)ncnc21 [Example 22, N-(Tetrahydro-furan-3S-yl)-5′-O-trifluoromethyl-adenosine]		>63	
O[C@@H]1[C@H](O)[C@@H](COCC(F)(F)F)O[C@H]1n1cnc2c(Nc3ccc(F)cc3)ncnc21 [Example 9, N-(4-Fluoro-phenyl)-5′-O-(2,2,2-trifluoro-ethyl)-adenosine]	298	19.7	
O[C@@H]1[C@H](O)[C@@H](COC(F)(F)F)O[C@H]1n1cnc2c(N[C@H]3CCC[C@@H]3F)ncnc21 [Example 12, N-(2S-Fluoro-cyclopent-(S)-yl)-5′-O-trifluoromethyl-adenosine]		>226	
O[C@@H]1[C@H](O)[C@@H](COCC(F)(F)F)O[C@H]1n1cnc2c(NC3CCCC3)ncnc21 [Example 6, N-Cyclopentyl-5′-O-(2,2,2-trifluoro-ethyl)-adenosine]	8.70	7.7	74 to 76 °C
O[C@@H]1[C@H](O)[C@@H](COC(F)(F)F)O[C@H]1n1cnc2c(N[C@@H]3CCOC3)ncnc21 [Example 21, N-(Tetrahydro-furan-3R-yl)-5′-O-trifluoromethyl-adenosine]		>175	
Cc1nc(NC2CCOCC2)c2ncn([C@@H]3O[C@H](COC(F)(F)F)[C@@H](O)[C@H]3O)c2n1 [Example 25, 2-Methyl N-(tetrahydro-pyran-4-yl)-5′-O-trifluoromethyl-adenosine]	32		
CCOC(=O)N1CCC(Nc2ncnc3c2ncn3[C@@H]2O[C@H](COC(F)(F)F)[C@@H](O)[C@H]2O)CC1 [Example 18, 4-[9-(3R,4S-Dihydroxy-5R-trifluoromethoxymethyl-tetrahydro-furan-2R-yl)-9H-purin-6-ylamino]-piperidine-1-carboxylic Acid Ethyl Ester]	5.32	>202	
CC(C)(C)Nc1ncnc2c1ncn2[C@@H]1O[C@H](COC(F)(F)F)[C@@H](O)[C@H]1O [Example 17, N-tert-Butyl-5′-O-trifiuoromethyl-adenosine]		>207	
O[C@@H]1[C@H](O)[C@@H](COC(F)(F)F)O[C@H]1n1cnc2c(NC3CC4CCC3C4)ncnc21 (stereo partly drawn) [Example 3, N-(exo-Bicyclo[2.2.1]hept-2-yl)-5′-O-trifluoromethyl-adenosine]		143.5	

The remaining lines, values ahead:

A1 ECR (equipotent concentration ratio relative to NECA=1) [1]	A3 ECR (equipotent concentration ratio relative to NECA=1) [2]	melting point	SMILES
11.1	>276		O[C@@H]1[C@H](O)[C@@H](COC(F)(F)F)O[C@H]1n1cnc2c(NC3CCSCC3)ncnc21 [Example 13, N-(Tetrahydro-thiopyran-4-yl)-5′-O-trifluoromethyl-adenosine]
8.40	>129		O[C@@H]1[C@H](O)[C@@H](COC(F)(F)F)O[C@H]1n1cnc2c(NC3CCOCC3)ncnc21 [Example 1, N-(Tetrahydro-pyran-4-yl)-5′-O-trifluoromethyladenosine]
12.52	>175		CC(=O)NCCNc1ncnc2c1ncn2[C@@H]1O[C@H](COC(F)(F)F)[C@@H](O)[C@H]1O [Example 23, N-{2-[9-(3R,4S-Dihydroxy-5R-trifluoromethoxymethyl-tetrahydro-furan-2R-yl)-9H-purin-6-ylamino]-ethyl}-acetamide]
79.50	>207		O=S1(=O)CCC(Nc2ncnc3c2ncn3[C@@H]2O[C@H](COC(F)(F)F)[C@@H](O)[C@H]2O)CC1 [Example 16, N-(1,1-Dioxo-hexahydro-1δ6-thiopyran-4-yl)-5′-O-trifluoromethyl-adenosine]
23.2			O[C@@H]1[C@H](O)[C@@H](COC(F)(F)F)O[C@H]1n1cnc2c(Nc3cccc(F)c3)ncnc21 [Example 15, N-(3-Fluoro-phenyl)-5′-O-trifluoromethyl-adenosine]
33.2	>212		CNS(=O)(=O)CCNc1ncnc2c1ncn2[C@@H]1O[C@H](COC(F)(F)F)[C@@H](O)[C@H]1O [Example 5, 2-[9-(3R,4S-Dihydroxy-5R-trifluoromethoxymethyl-tetrahydro-furan-2R-yl)-9H-purin-6-ylamino]-ethanesulfonic Acid Methylamide]
24.10	284.5		OCC(O)CNc1ncnc2c1ncn2[C@@H]1O[C@H](COC(F)(F)F)[C@@H](O)[C@H]1O (relative stereo) [Example 20, N-(rel-2,3-Dihydroxy-propyl)-5′-O-trifiuoromethyl-adenosine]
20.50	197.3		O[C@@H]1[C@H](O)[C@@H](COC(F)(F)F)O[C@H]1n1cnc2c(Nc3ccc(F)c(F)c3)ncnc21 [Example 14, N-(3,4-Difluoro-phenyl)-5′-O-trifluoromethyl-adenosine]
80.7	81.6		Nc1ncnc2c1ncn2[C@@H]1O[C@H](COC(F)(F)F)[C@@H](O)[C@H]1O [Example 4, 5′-O-Trifluoromethyladenosine]
